Measured values: paper PMC8576102, “Structure–Activity Relationship of Novel Second-Generation Synthetic Cathinones: Mechanism of Action, Locomotion, Reward, and Immediate-Early Genes” (Frontiers in Pharmacology, 2021)

How the values were obtained:
[1] = test system: Swiss CD-1 mice; assay: Horizontal locomotor activity (HLA); assay type: in vivo; conditions: for HLA after 30 mg/kg compared to the medium dose (10 mg/kg): 30 mg/kg vs 10 mg/kg i.p.; for HLA vs saline at the lowest dose: 3 mg/kg i.p., 60 min; for Persistence of the increase in locomotor activity: 10 mg/kg i.p.
[2] = molecular target: T1, hSERT (Homo sapiens, UniProt P31645); assay: Uptake inhibition assay, [3H]5-HT uptake in transfected HEK293 cells; assay type: cell-based
T1 construct: YFP (yellow-fluorescent protein); expressed in transfected cells
Protocol: (§1) Human embryonic kidney (HEK293) cells stably expressing the yellow-fluorescent protein (YFP)-tagged version of the human isoforms of SERT (abbreviated as SERT) and DAT (abbreviated as DAT) were used for the uptake inhibition and release assays. The generation and maintenance of stable, monoclonal cell lines expressing these transporters was conducted as described by ([Mayer F. P. et al., 2016]; [Mayer et al., 2016 FP.]). HEK293 cells were maintained in DMEM supplemented with heat-inactivated 10% FBS, 100 µg/100 ml streptomycin, 100 U/ml penicillin, and Geneticin (G418; 50 μg/ml) and cultured in a humidified atmosphere (5% CO2, 37°C). The cells were seeded at a density of 0.36 million cells/well onto 96-well plates previously coated (24 h) with poly-D-lysine (PDL).
(§2) The medium was removed and immediately replaced with 200 µL/well of Krebs-HEPES buffer (KHB; 10 mM HEPES, 120 mM NaCl, 3 mM KCl, 2 mM CaCl2·2H2O, 2 mM MgCl2·6H2O, 20 mM D-glucose; pH 7.3). The cells were pre-incubated with different concentrations of the drug in KHB at a final volume of 50 µL/well for 5 min (DAT, SERT). Immediately after, the pre-incubation solution was removed and the cells were incubated with the tritiated substrates, 0.02 µM [^3H]MPP^+ for the DAT (3 min) and 0.1 µM [^3H]5-HT for the SERT (1 min), along with different concentrations of the drug in KHB. Finally, the [^3H]substrate was removed and the cells were washed with ice-cold KHB followed by the addition of sodium dodecyl sulfate (SDS) 1%. The lysate was then added to the scintillation fluid, and the radioactivity was quantified with a beta-scintillation counter (Perkin Elmer, Waltham, MA, United States).
(§3) The uptake in the absence of the drug compound was normalized to 100%, being the percentage of the uptake in the presence of different concentrations of the drug expressed as a percentage thereof. 3–4 independent experiments were performed in duplicate.
(§4) Data were expressed as mean ± SEM. Competition curves were plotted and fitted by non-linear regression, and data were best fitted to a sigmoidal dose-response curve to obtain an IC50 value. 1/DAT IC50: 1/SERT IC50 was used to calculate transporter ratios. Data from batch release assays were statistically analyzed with a mixed-effects model, employing Šidák’s correction for multiple comparisons. One-way/two-way ANOVA or two-way ANOVA of repeated measures, followed by Tukey’s or Dunnett’s post hoc test, was also used when appropriate. The α error probability was set at 0.05 (p < 0.05). The size group for each experiment and statistical results are shown in the corresponding legend of figures. Statistical calculations were performed using GraphPad Prism (GraphPad Software, San Diego, CA, United States).

[3] = molecular target: T2, hDAT (Homo sapiens, UniProt Q01959); assay: Uptake inhibition assay, [3H]MPP+ uptake in transfected HEK293 cells; assay type: cell-based; conditions: for hDAT/hSERT ratio: 1/DAT IC50: 1/SERT IC50
T2 construct: YFP (yellow-fluorescent protein); expressed in transfected cells
Protocol: as §1, §2, §3, §4

[4] = test system: T3, SERT; assay: Batch release assay, [3H]5-HT release from SERT-expressing HEK293 cells; assay type: cell-based, human; conditions: for [3H]5-HT release at the SERT (in words): compound close to its IC50, KHB vs KHB + monensin 10 µM
T3 construct: YFP (yellow-fluorescent protein); expressed in transfected cells
Protocol: as §1
HEK293 cells expressing the transporter of interest were preloaded with the tritiated substrate 0.08 μM [^3H]5-HT (SERT) or 0.1 μM [^3H]MPP^+ (DAT) in KHB (50 μL/well) for 20 min (5% CO2, 37°C). Subsequently, the cells were washed three times using KHB (200 μL/well) at room temperature. Afterward, a pre-incubation step of 10 min in KHB or in KHB + monensin (Mon) 10 μM was done. […] To determine the specificity of drug-induced reverse transport, selective transporter inhibitors 0.05 μM paroxetine (SERT) and 0.5 μM of GBR12909 (DAT) and effective releasers 10 μM p-chloroamphetamine (PCA; SERT) and 10 μM d-amphetamine (DAT) were used (Supplementary Figure S1). The resulting supernatant was collected and transferred to a new well every 2 min (four times for KHB/Mon and five times for each tested compound). Three independent experiments were performed in duplicate. Liquid scintillation cocktail was added to the wells with remaining cells (200 μL) and with the transferred supernatant (100 μL) and to the wells used for total uptake and activity measurements (200 μL). Total radioactivity present in the supernatant and in the remaining cells was set as 100%, and the amount of [^3H] substrate present in the supernatant was expressed as percentage of the total.
as §4

[5] = test system: c-fos mRNA; assay: c-fos mRNA expression (qPCR) in ventral and dorsal striatum; assay type: in vivo, mice; conditions: 10 mg/kg i.p., vs saline; for c-fos expression in the DS, 120 min: 120 min post injection; for c-fos expression in the VS, 120 min: 120 min after administration
Protocol: (§5) Mice were injected with an acute dose of 10 mg/kg i.p. of the corresponding synthetic cathinone or saline solution. The dose was chosen according to the behavioral results obtained since it caused significant response in both CPP and HLA tests in all compounds tested. 30 min or 2 h post-administration, mice were sacrificed by cervical dislocation and the VS, DS, and mPFC were dissected out ([Paxinos and Franklin, 2004]) using a mouse brain acrylic matrix (Agnthos, Sweden) and stored at -80°C until use. Total RNA was isolated following a standard TRIsure reagent–chloroform extraction protocol ([Duart-Castells et al., 2019]).
(§6) Reverse transcription polymerase chain reaction (RT-PCR) was carried out to obtain complementary DNA (cDNA) by using the High Capacity cDNA Reverse Transcription Kit (Applied Biosystems) and the Veriti thermal cycler (Applied Biosystems, Foster, CA, United States). Synthesis of cDNA was obtained by mixing 1,000 ng of total RNA with the corresponding volumes of each kit reagent to a final volume of 20 μL. Quantitative real-time polymerase chain reaction (qPCR) was performed by using the StepOnePlus^TM Real-Time PCR System and TaqMan PCR Master Mix (Applied Biosystems, Foster, CA, United States). 25 ng of cDNA was loaded in a final volume of 20 μL containing sequence-specific primers and TaqMan probes (Mm01204954_g1 for Arc, Mm04230607_s1 for bdnf, Mm00487425_m1 for c-fos, and Mm00607939_s1 for β-actin). Each sample was tested in duplicate. qPCR conditions were 2 min at 50°C, 10 min at 95°C, 40 cycles/15 s at 95°C, and 60 s at 60°C. Changes in gene expression were defined by using the comparative Ct method for each experimental sample. Gene expression was normalized by using the mean of Ct values of the housekeeping gene β-actin.

[6] = test system: Arc mRNA; assay: Arc mRNA expression (qPCR) in ventral and dorsal striatum; assay type: in vivo, mice; conditions: 10 mg/kg i.p., 120 min after administration, vs saline
Protocol: as §5, §6

[7] = test system: Arc mRNA; design: method as in Giannotti et al., 2017; conditions: 30 min and 2 h after administration; ref Giannotti et al., 2017; cited from earlier work
[8] = test system: Swiss CD-1 mice; assay: Conditioned place preference (CPP); assay type: in vivo; conditions: 30 mg/kg i.p.
Protocol: For the behavioral and gene expression experiments, male Swiss CD-1 mice (Janvier, Le Genest, France) weighing 30–35 g (6–8 weeks old) were used. With the aim of reducing the number of animals and minimize their suffering, animal procedures were performed in accordance with the ARRIVE guidelines. All animal care and experimental protocols in this study were in accordance with the guidelines of the European Community Council (2010/63/EU), as amended by Regulation (EU) 2019/1010, and approved by the Animal Ethics Committee of the University of Barcelona under the supervision of the Autonomous Government of Catalonia. The animals were housed in temperature-controlled conditions (22 ± 1°C) under a 12 h light/dark cycle and had free access to food and drinking water. During the study, the animals were supervised immediately after injection and during the behavioral procedure as well as 24 h after injection, and different parameters were visually evaluated for humane endpoints, such as self-mutilations, strange vocalizations, abnormal posture, or a greater weight loss than 20%. The sample size was determined using GPower software. […]
The rewarding effects were determined using a place conditioning paradigm as described by [Duart-Castells et al. (2019]). […] The time spent in each compartment was recorded (Smart 3.0, Panlab, Spain). […]

[9] = test system: bdnf mRNA; assay: bdnf mRNA expression (qPCR) in medial prefrontal cortex; assay type: in vivo, mice; conditions: 10 mg/kg i.p., 120 min after administration, vs saline
Protocol: as §5
Reverse transcription polymerase chain reaction (RT-PCR) was carried out to obtain complementary DNA (cDNA) by using the High Capacity cDNA Reverse Transcription Kit (Applied Biosystems) and the Veriti thermal cycler (Applied Biosystems, Foster, CA, United States). Synthesis of cDNA was obtained by mixing 1,000 ng of total RNA with the corresponding volumes of each kit reagent to a final volume of 20 μL. Quantitative real-time polymerase chain reaction (qPCR) was performed by using the StepOnePlus^TM Real-Time PCR System and TaqMan PCR Master Mix (Applied Biosystems, Foster, CA, United States). […]

T1 sequence (P31645 whole entry): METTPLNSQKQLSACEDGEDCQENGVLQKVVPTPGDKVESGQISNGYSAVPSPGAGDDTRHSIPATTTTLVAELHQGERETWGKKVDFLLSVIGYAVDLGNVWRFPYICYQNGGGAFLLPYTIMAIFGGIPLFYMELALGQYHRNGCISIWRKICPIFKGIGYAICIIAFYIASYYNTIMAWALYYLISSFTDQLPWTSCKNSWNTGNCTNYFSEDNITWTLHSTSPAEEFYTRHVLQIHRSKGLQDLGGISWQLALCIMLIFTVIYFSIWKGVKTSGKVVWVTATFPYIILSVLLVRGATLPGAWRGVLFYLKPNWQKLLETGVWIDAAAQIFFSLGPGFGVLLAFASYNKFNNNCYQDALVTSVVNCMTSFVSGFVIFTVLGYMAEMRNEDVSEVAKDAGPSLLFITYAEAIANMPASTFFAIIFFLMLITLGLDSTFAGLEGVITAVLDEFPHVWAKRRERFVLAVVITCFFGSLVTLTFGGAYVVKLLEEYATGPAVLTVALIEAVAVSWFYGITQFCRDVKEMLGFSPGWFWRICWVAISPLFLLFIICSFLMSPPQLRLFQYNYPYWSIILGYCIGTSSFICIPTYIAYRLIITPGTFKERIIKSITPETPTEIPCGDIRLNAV
T2 sequence (Q01959 whole entry): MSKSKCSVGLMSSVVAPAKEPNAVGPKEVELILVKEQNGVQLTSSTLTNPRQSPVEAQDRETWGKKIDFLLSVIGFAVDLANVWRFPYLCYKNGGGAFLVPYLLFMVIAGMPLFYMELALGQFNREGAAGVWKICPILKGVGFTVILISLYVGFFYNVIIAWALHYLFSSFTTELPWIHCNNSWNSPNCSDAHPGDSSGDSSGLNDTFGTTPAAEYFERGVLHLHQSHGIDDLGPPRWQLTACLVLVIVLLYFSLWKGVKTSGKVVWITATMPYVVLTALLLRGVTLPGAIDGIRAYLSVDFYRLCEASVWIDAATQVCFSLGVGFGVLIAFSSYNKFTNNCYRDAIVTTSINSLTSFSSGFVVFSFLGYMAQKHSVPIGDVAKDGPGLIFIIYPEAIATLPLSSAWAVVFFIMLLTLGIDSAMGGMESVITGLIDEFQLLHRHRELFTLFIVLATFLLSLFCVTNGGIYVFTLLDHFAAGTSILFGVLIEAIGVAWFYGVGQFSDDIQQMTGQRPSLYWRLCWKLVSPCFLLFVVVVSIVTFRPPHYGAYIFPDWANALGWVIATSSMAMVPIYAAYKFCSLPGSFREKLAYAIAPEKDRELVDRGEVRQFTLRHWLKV

Row | Compound | HLA after 30 mg/kg compared to the medium dose (10 mg/kg) [1] | IC50 [2] [µM] | IC50 [3] [µM] | hDAT/hSERT ratio [3] | [3H]5-HT release at the SERT (in words) [4] | c-fos expression in the DS, 30 min ([5]; 30 min after injection) | c-fos expression in the DS, 120 min [5] | Arc gene expression in the DS, 120 min [6] | Arc gene expression in the VS, 120 min [6] | Distance traveled ([1]; 10 mg/kg, independent experiment, N = 15) | Arc mRNA levels in the striatum after acute injection [7] | HLA vs saline at the lowest dose [1] | Persistence of the increase in locomotor activity [1] | c-fos expression in the VS, 120 min [5] | c-fos expression in the VS, 30 min ([5]; 30 min after injection) | CPP rewarding effects vs saline at the highest dose [8] | bdnf mRNA levels in the mPFC, 120 min [9] | [3H]5-HT release at SERT-expressing HEK293 cells, max. ([4]; compound close to its IC50 (NEP 6 µM))
1 | CCCC(NC)C(=O)c1ccc(C)cc1 (stereo not drawn) [4-MPD, 4’-methyl-α-methylaminovalerophenone] | significant increase | 30.9 ± 6.23 | 0.29 ± 0.05 | 108 | most potent | – | – | – | – | – | – | – | – | – | – | – | – | –
2 | CCCC(NCC)C(=O)c1ccc(C)cc1 (stereo not drawn) [4-MeAP, 4’-methyl-α-ethylaminovalerophenone] | significant increase | 13.3 ± 0.89 | 0.14 ± 0.02 | 93 | most potent | significant overexpression | increased | significant increase | significant increase | – | – | – | – | – | – | – | – | –
3 | COC(=O)[C@H]1[C@@H](OC(=O)c2ccccc2)C[C@@H]2CC[C@H]1N2C [Cocaine, reference compound] | – | – | – | – | – | – | – | – | – | 16,018 ± 1,118 cm | – | – | – | – | – | – | – | –
4 | CCCC(C(=O)c1ccc2c(c1)OCO2)N1CCCC1 (stereo not shown) [MDPV, 3,4-methylenedioxypyrovalerone] | – | – | – | – | – | – | – | – | – | – | increased | – | – | – | – | – | – | –
5 | CCCC(NCC)C(=O)c1ccccc1 (stereo not drawn) [N-Ethyl-pentedrone, α-ethylaminovalerophenone] | ceiling effect | 127 ± 5.14 | 0.1 ± 0.03 | >1,000 | most potent | significant overexpression | increased | significant increase | significant increase | – | – | increase | more than 1 hour | significant increase | – | – | – | –
6 | CCCC(NCC)C(=O)c1ccc2c(c1)OCO2 (stereo not drawn) [N-Ethyl-pentylone, 3’,4’-methylendioxy-α-ethylaminovalerophenone] | significant decrease | 6.37 ± 0.09 | 0.13 ± 0.01 | 51 | smallest | increased | – | significant increase | significant increase | – | – | increase | more than 1 hour | – | significant overexpression | significant increase | significant overexpression | ≈ 5 % total cpm
7 | CCCC(NC)C(=O)c1ccccc1 (stereo not drawn) [Pentedrone, α-methylaminovalerophenone] | ceiling effect | 138 ± 13.4 | 0.21 ± 0.02 | 666 | milder release | – | increased | – | – | – | – | – | – | significant increase | – | – | – | –
8 | CCCC(NC)C(=O)c1ccc2c(c1)OCO2 (stereo not drawn) [Pentylone, 3’,4’-methylendioxy-α-methylaminovalerophenone] | significant increase | 23.2 ± 2.68 | 0.51 ± 0.07 | 45 | milder release | – | increased | significant increase | significant increase | – | – | – | – | – | – | – | – | –
9 | CCCC(C(=O)c1ccccc1)N1CCCC1 (stereo not drawn) [α-PVP] | – | – | – | – | – | – | – | – | – | – | did not alter | – | – | – | – | – | – | –
